Test results reported in article PMC12530851, “Design, synthesis, and apoptotic antiproliferative activity of novel dihydropyrimidine-5-carbonitrile/1,2,4-oxadiazole hybrids as dual EGFR/VEGFR-2 inhibitors endowed with antioxidant activity” (RSC Advances, 2025).

Legend:
[1] = Cell viability assay (MTT) on normal MCF-10A cells; type: cell-based; conditions: human, MCF-10A mammary gland epithelial cells (normal cell line), MCF-10A normal cells, four-day incubation
Experimental: The impact of novel compounds 10a–l on the viability of a normal human cell line, specifically human mammary gland epithelial cells (MCF-10A), was assessed to ascertain the safety of the newly synthesized compounds. The MTT test was employed to assess the cell viability of the novel compounds after a four-day incubation with MCF-10A cells.[29,37] Refer to Appendix A for more experimental details.
The effect of new compounds 10a–l on the viability of a normal human cell line, namely human mammary gland epithelial cells (MCF-10A), was evaluated to determine the safety of the newly synthesized compounds.
4.2. Biological evaluation
4.2.1 Cell Viability assay (MTT assay)
MTT assay was performed to investigate the effect of the synthesized compounds on mammary epithelial cells (MCF-10A). The cells were propagated in medium consisting of Ham's F-12 medium/ Dulbecco's modified Eagle's medium (DMEM) (1:1) supplemented with 10% foetal calf serum, 2 mM glutamine, insulin (10 μg/mL), hydrocortisone (500 ng/mL) and epidermal growth factor (20 ng/mL). Trypsin ethylenediamine tetra acetic acid (EDTA) was used to passage the cells after every 2-3 days. 96-well flat-bottomed cell culture plates were used to seed the cells at a density of 10^4 cells mL-1. The medium was aspirated from all the wells of culture plates after 24 h followed by the addition of synthesized compounds (in 200 μL medium to yield a final concentration of 0.1% (v/v) dimethyl sulfoxide) into individual wells of the plates. Four wells were designated to a single compound. The plates were allowed to incubate at 37°C for 96 h. Afterwards, the medium was aspirated and 3-[4,5-dimethylthiazol-2-yl]-2,5-diphenyltetrazolium bromide (MTT) (0.4 mg/mL) in medium was added to each well and subsequently incubated for 3 h. The medium was aspirated and 150 μL dimethyl sulfoxide (DMSO) was added to each well. The plates were vortexed followed by the measurement of absorbance at 540 nm on a microplate reader. […]

[2] = tested on: MCF-7 (breast cancer); assay: Antiproliferative assay, MCF-7; type: cell-based, human; conditions: for IC50: Homo sapiens, MCF7, MCF-7 breast cancer cells, read-out: Antiproliferative activity IC50 ± SEM, MCF-7
Excerpt: (§1) The dose–response experiments established the IC50 values for the new compounds. The given findings were obtained from at least two distinct studies, each comprising three repeats per concentration. Appendix A (SI File) provides experimental details.[38,39]
(§2) The MTT assay[43] was utilized to assess the antiproliferative effects of compounds 10a–l on four human cancer cell lines: HT-29 (colon cancer), Panc-1 (pancreatic cancer), A-549 (lung cancer), and MCF-7 (breast cancer). […]
(§3) 4.2.2. Assay for antiproliferative effect
(§4) To explore the antiproliferative potential of compounds propidium iodide fluorescence assay was performed using different cell lines such as Panc-1 (pancreas cancer cell line), MCF-7 (breast cancer cell line), HT-29 (colon cancer cell line) and A-549 (epithelial cancer cell line), respectively. To calculate the total nuclear DNA, a fluorescent dye (propidium iodide, PI) is used which can attach to the DNA, thus offering a quick and precise technique. PI cannot pass through the cell membrane and its signal intensity can be considered as directly proportional to quantity of cellular DNA. Cells whose cell membranes are damaged or have changed permeability are counted as dead ones. The assay was performed by seeding the cells of different cell lines at a density of 3000-7500 cells/well (in 200μl medium) in culture plates followed by incubation for 24h at 37 °C in humidified 5%CO2/95% air atmospheric conditions. The medium was removed; the compounds were added to the plates at 10 μM concentrations (in 0.1% DMSO) in triplicates, followed by incubation for 48h. DMSO (0.1%) was used as control. After incubation, medium was removed followed by the addition of PI (25 μl, 50μg/mL in water/medium) to each well of the plates. At - 80 °C, the plates were allowed to freeze for 24 h, followed by thawing at 25 °C. A fluorometer (Polar-Star BMG Tech) was used to record the readings at excitation and emission wavelengths of 530 and 620 nm for each well. The percentage cytotoxicity of compounds was calculated using […]
(§5) Where ATC= Absorbance of treated cells and AC= Absorbance of control. Erlotinib was used as positive control in the assay. […]

[3] = tested on: HT-29 (colon cancer); assay: Antiproliferative assay, HT-29; type: cell-based; conditions: Homo sapiens; HT-29 colon cancer cells; read-out: Antiproliferative activity IC50 ± SEM, HT-29
Excerpt: as §1, §2, §3, §4, §5

[4] = tested on: caspase-9; assay: Caspase-9 activation assay in MCF-7 cells; type: cell-based, human; conditions: for Caspase-9 Fold change: vs untreated control
Experimental: Compounds10k and 10l were tested as caspases-3, 8, 9, Bax and p53 activators and as down-regulators of the anti-apoptotic protein Bcl2 against the MCF-7 breast cancer cell line.[41] Appendix A gives more details.
To elucidate the apoptotic processes of compounds 10k and 10l, whether via the intrinsic or extrinsic pathway, their impacts on caspase-8 and caspase-9 were evaluated. […] This signifies the activation of both intrinsic and extrinsic pathways (Table 5).
4.2.6. Caspase-8/9 activation assay
Cells were obtained from American Type Culture Collection, cells were grown in RPMI 1640 containing 10% fetal bovine serum at 37°C, stimulated with the compounds to be tested for caspase 8/9, and lysed with Cell Extraction Buffer. This lysate was diluted in Standard Diluent Buffer over the range of the assay and measured for human active caspase-8/9 content. (Cells are Plated in a density of 1.2 – 1.8 × 10,000 cells/well in a volume of 100µl complete growth medium + 100 ul of the tested compound per well in a 96-well plate for 24 hours before the enzyme assay). The absorbance of each microwell was read on a spectro-photometer at 450 nm. […]

IC50 [2]	IC50 [3]	SMILES	viability at 96 h, 50 µM [1]	Potency relative to erlotinib, MCF-7 ([2]; more potent than erlotinib)	Caspase-9 Conc [4]	Caspase-9 Fold change [4]
20 ± 1 nM	23 ± 1 nM	COc1ccc(-c2nc(SCc3nc(-c4ccc(Cl)cc4)no3)[nH]c(=O)c2C#N)cc1 [Compound 10k, 2-(((3-(4-Chlorophenyl)-1,2,4-oxadiazol-5-yl)methyl)thio)-4-(4-methoxyphenyl)-6-oxo-1,6-dihydropyrimidine-5-carbonitrile]	90%	twice as potent	24 ± 1 ng/mL	24 fold
22 ± 1 nM	28 ± 1 nM	COc1ccc(-c2noc(CSc3nc(-c4ccc(OC)cc4)c(C#N)c(=O)[nH]3)n2)cc1 [Compound 10l, 2-(((3-(4-Methoxyphenyl)-1,2,4-oxadiazol-5-yl)methyl)thio)-4-(4-methoxyphenyl)-6-oxo-1,6-dihydropyrimidine-5-carbonitrile]	91%	–	22 ± 1 ng/mL	22 fold
